These results are taken from patent US12187709B2 (Genentech, Inc., priority 2021, dated 2025).

Assay [1] addresses Cbl-b (Homo sapiens (Human), UniProt Q13191). The assay is described as follows: Cbl-b LCK Ub TR-FRET assay (Cbl-b Lck HTRF). It is filed as biochemical. The settings on record: for IC50: Cbl-b LCK Ub TR-FRET; for fold-selectivity (Cbl-b over C-cbl): ratio C-cbl Lck HTRF IC50 / Cbl-b Lck HTRF IC50. In outline: (§1)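 Detection reagents added, brief spin, 20 min RT. IC50 fit normalized to no-LCK (low) and DMSO (high) controls.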

Assay [2] concerns the target c-Cbl (Homo sapiens (Human), UniProt P22681). Put plainly: C-Cbl LCK Ub TR-FRET assay (C-cbl Lck HTRF). The assay is classed as biochemical. A digest of the protocol:
as §1
In general terms: Time-resolved FRET reads energy transfer from a long-lived donor to a nearby acceptor.

What is called IC50 is the concentration at which inhibition is half-maximal.

Chain of c-Cbl (P22681 47-435): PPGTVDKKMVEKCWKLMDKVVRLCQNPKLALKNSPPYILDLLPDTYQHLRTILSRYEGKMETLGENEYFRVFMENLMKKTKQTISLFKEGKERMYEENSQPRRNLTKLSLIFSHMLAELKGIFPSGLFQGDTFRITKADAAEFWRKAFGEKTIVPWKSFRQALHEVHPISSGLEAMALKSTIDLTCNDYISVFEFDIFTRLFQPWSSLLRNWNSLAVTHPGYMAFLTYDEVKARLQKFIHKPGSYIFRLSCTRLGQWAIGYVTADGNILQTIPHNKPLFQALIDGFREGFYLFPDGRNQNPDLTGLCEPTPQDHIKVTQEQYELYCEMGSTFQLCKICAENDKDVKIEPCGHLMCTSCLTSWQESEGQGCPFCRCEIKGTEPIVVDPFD
Chain of Cbl-b (Q13191 40-426): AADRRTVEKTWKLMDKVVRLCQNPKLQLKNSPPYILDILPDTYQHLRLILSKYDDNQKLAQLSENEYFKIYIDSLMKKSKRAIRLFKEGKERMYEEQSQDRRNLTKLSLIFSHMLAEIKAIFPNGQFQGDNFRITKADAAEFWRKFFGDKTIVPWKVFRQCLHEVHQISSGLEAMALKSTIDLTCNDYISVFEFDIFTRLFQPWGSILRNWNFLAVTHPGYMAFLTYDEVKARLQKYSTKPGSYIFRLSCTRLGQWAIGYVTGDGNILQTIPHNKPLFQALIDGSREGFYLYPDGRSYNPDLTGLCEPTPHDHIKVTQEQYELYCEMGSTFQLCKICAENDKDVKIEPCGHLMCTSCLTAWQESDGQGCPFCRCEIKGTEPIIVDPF

For the compound `CCNc1cc([C@]2(c3nncn3C)C[C@@H](C)C2)cc(N2Cc3c(cc(CNC4(C)CCC4)cc3C(F)(F)F)C2=O)n1` [Compound 5, 2-(6-(ethylamino)-4-((1s,3s)-3-methyl-1-(4-methyl-4H-1,2,4-triazol-3-yl)cyclobutyl)-pyridin-2-yl)-6-(((1-methylcyclobutyl)amino)methyl)-4-(trifluoromethyl)isoindolin-1-one], in assay [1], the IC50 was 7.1 nM and the “fold-selectivity (Cbl-b over C-cbl)” value is “(0.64x)”. The compound also gave an IC50 in assay [2] of 4.5 nM.
The like results for `CCNc1cc([C@]2(c3nncn3C)C[C@H](C)C2)cc(N2Cc3c(cc(CNC4(C)CCC4)cc3C(F)(F)F)C2=O)n1` [Compound 6, 2-(6-(ethylamino)-4-((1r,3r)-3-methyl-1-(4-methyl-4H-1,2,4-triazol-3-yl)cyclobutyl)-pyridin-2-yl)-6-(((1-methylcyclobutyl)amino)methyl)-4-(trifluoromethyl)isoindolin-1-one] were, in that order, 11 nM, “(0.56x)” and 6.2 nM.
For `CO[C@]1(C)C[C@](c2cccc(N3Cc4c(cc(CNC5(C)CCC5)cc4C(F)(F)F)C3=O)c2)(c2nncn2C)C1` [Compound 29, 2-(3-((1s,3s)-3-methoxy-3-methyl-1-(4-methyl-4H-1,2,4-triazol-3-yl)cyclobutyl)phenyl)-6-(((1-methylcyclobutyl)amino)methyl)-4-(trifluoromethyl)isoindolin-1-one] the same measures were 83 nM, “(2.0x)” and 166 nM.
Turning to `Cn1cnnc1[C@]1(c2cccc(N3Cc4c(cc(CNC5(C)CCC5)cc4C(F)(F)F)C3=O)c2)C[C@@](C)(F)C1` [Compound 31, 2-(3-((1r,3r)-3-fluoro-3-methyl-1-(4-methyl-4H-1,2,4-triazol-3-yl)cyclobutyl)phenyl)-6-(((1-methylcyclobutyl)amino)methyl)-4-(trifluoromethyl)isoindolin-1-one], in assay [1], the IC50 came to 15 nM and the “fold-selectivity (Cbl-b over C-cbl)” value is given as “(2.2x)”. For the same compound, the IC50 in assay [2] is 33 nM.
The like results for `Cn1cnnc1[C@]1(c2cccc(N3Cc4c(cc(CNC5(C)CCC5)cc4C(F)(F)F)C3=O)c2)C[C@@H](F)C1` [Compound 36, 2-(3-((1r,3r)-3-fluoro-1-(4-methyl-4H-1,2,4-triazol-3-yl)cyclobutyl)phenyl)-6-(((1-methylcyclobutyl)amino)methyl)-4-(trifluoromethyl)isoindolin-1-one] were, in that order, 11 nM, “(1.1x)” and 12 nM.
For `Cn1cnnc1C1(c2cccc(N3Cc4c(cc(CNC5(C)CCC5)cc4C(F)(F)F)C3=O)c2)CC(C)(C)C1` [Compound 39, 2-(3-(3,3-dimethyl-1-(4-methyl-4H-1,2,4-triazol-3-yl)cyclobutyl)phenyl)-6-(((1-methylcyclobutyl)amino)methyl)-4-(trifluoromethyl)-isoindolin-1-one] the same measures were 7.2 nM, “(2.4x)” and 17 nM.
For the compound `Cn1cnnc1C1(c2cccc(N3Cc4c(cc(CNC5(C)CCC5)cc4C(F)(F)F)C3=O)c2)CC2(CCC2)C1` [Compound 40], the IC50 came to 8.9 nM in assay [1] and 28 nM in assay [2]. In addition, in assay [1], the “fold-selectivity (Cbl-b over C-cbl)” value is given as “(3.2x)”.
For `CC(C)[C@H]1CN(C)CCN1Cc1cc2c(c(C(F)(F)F)c1)CN(c1cccc(C3(c4nncn4C)CC4(COC4)C3)c1)C2=O` [Compound 41, (S)-6-((2-isopropyl-4-methylpiperazin-1-yl)methyl)-2-(3-(6-(4-methyl-4H-1,2,4-triazol-3-yl)-2-oxaspiro[3.3]heptan-6-yl)phenyl)-4-(trifluoromethyl)isoindolin-1-one] the same measures were 21 nM, 59 nM and “(2.8x)”.
The like results for `Cn1cnnc1[C@H](OC1CCC1)c1cccc(N2Cc3c(cc(CNC4(C)CCC4)cc3C(F)(F)F)C2=O)c1` [Compound 47, (R)-2-(3-(cyclobutoxy(4-methyl-4H-1,2,4-triazol-3-yl)methyl)phenyl)-6-(((1-methylcyclobutyl)amino)methyl)-4-(trifluoromethyl)isoindolin-1-one] were, in that order, 1200 nM, 2300 nM and “(1.9x)”.
The like results for `CCc1cc(C2(c3nncn3C)CC(F)(F)C2)cc(N2Cc3c(cc(CNC4(C)CCC4)cc3C(F)(F)F)C2=O)n1` [Compound 59, 2-(4-(3,3-difluoro-1-(4-methyl-4H-1,2,4-triazol-3-yl)cyclobutyl)-6-ethylpyridin-2-yl)-6-(((1-methylcyclobutyl)amino)methyl)-4-(trifluoromethyl)isoindolin-1-one] were, in that order, 18 nM, 17 nM and “(0.96x)”.
On to `Cc1cc(C2(c3nncn3C)CC(F)(F)C2)cc(N2Cc3c(cc(CNC4(C)CCC4)cc3C(F)(F)F)C2=O)n1` [Compound 60, 2-(4-(3,3-difluoro-1-(4-methyl-4H-1,2,4-triazol-3-yl)cyclobutyl)-6-methylpyridin-2-yl)-6-(((1-methylcyclobutyl)amino)methyl)-4-(trifluoromethyl)isoindolin-1-one], for which the IC50 in assay [1] stood at 110 nM; in assay [2], 80 nM. Also, in assay [1], the “fold-selectivity (Cbl-b over C-cbl)” value is on record as “(0.73x)”.
The like results for `CCOc1cc([C@]2(c3nncn3C)C[C@@H](OC)C2)cc(N2Cc3c(cc(CNC4(C)CCC4)cc3C(F)(F)F)C2=O)n1` [Compound 76, 2-(6-ethoxy-4-((1S,3S)-3-methoxy-1-(4-methyl-4H-1,2,4-triazol-3-yl)cyclobutyl)pyridin-2-yl)-6-(((1-methylcyclobutyl)amino)methyl)-4-(trifluoromethyl)isoindolin-1-one] were, in that order, 6.4 nM, 6.4 nM and “(1.0x)”.
For `CCOc1cc([C@]2(c3nncn3C)C[C@H](OC)C2)cc(N2Cc3c(cc(CNC4(C)CCC4)cc3C(F)(F)F)C2=O)n1` [Compound 77, 2-(6-ethoxy-4-((1R,3R)-3-methoxy-1-(4-methyl-4H-1,2,4-triazol-3-yl)cyclobutyl)pyridin-2-yl)-6-(((1-methylcyclobutyl)amino)methyl)-4-(trifluoromethyl)isoindolin-1-one] the same measures were 8.2 nM, 8.2 nM and “(1.0x)”.
For `CO[C@H]1C[C@@](c2cc(OC3CCCC3)nc(N3Cc4c(cc(CNC5(C)CCC5)cc4C(F)(F)F)C3=O)c2)(c2nncn2C)C1` [Compound 78, 2-(6-(cyclopentyloxy)-4-((1S,3S)-3-methoxy-1-(4-methyl-4H-1,2,4-triazol-3-yl)cyclobutyl)pyriidn-2-yl)-6-(((1-methylcyclobutyl)amino)methyl)-4-(trifluoromethyl)isoindolin-1-one] the same measures were 14 nM, 70 nM and “(5.0x)”.
As to `CO[C@H]1C[C@](c2cc(OC3CCCC3)nc(N3Cc4c(cc(CNC5(C)CCC5)cc4C(F)(F)F)C3=O)c2)(c2nncn2C)C1` [Compound 79, 2-(6-(cyclopentyloxy)-4-((1R,3R)-3-methoxy-1-(4-methyl-4H-1,2,4-triazol-3-yl)cyclobutyl)pyridin-2-yl)-6-(((1-methylcyclobutyl)amino)methyl)-4-(trifluoromethyl)isoindolin-1-one], the concentration for half-maximal inhibition (IC50) was 32 nM in assay [1] and 237 nM in assay [2]. Besides, the “fold-selectivity (Cbl-b over C-cbl)” value in assay [1] is listed as “(7.4x)”.
For the compound `Cn1cnnc1C1(c2cccc(N3Cc4c(cc(CNC5(C)CCC5)cc4C(F)(F)F)C3=O)c2)CC2(CC(=O)C2)C1` [Compound 92, 2-(3-(2-(4-methyl-4H-1,2,4-triazol-3-yl)-6-oxospiro[3.3]heptan-2-yl)phenyl)-6-(((1-methylcyclobutyl)amino)methyl)-4-(trifluoromethyl)isoindolin-1-one], the IC50 in assay [1] stood at 13 nM; in assay [2], 29 nM. For the same compound, the “fold-selectivity (Cbl-b over C-cbl)” value in assay [1] is recorded as 2.2x.
Turning to `Cn1cnnc1C1(c2cccc(N3Cc4c(cc(CNC5(C)CCC5)cc4C(F)(F)F)C3=O)c2)CC2(CC(O)C2)C1` (stereo not drawn) [Compound 93, 2-(3-(6-hydroxy-2-(4-methyl-4H-1,2,4-triazol-3-yl)spiro[3.3]heptan-2-yl)phenyl)-6-(((1-methylcyclobutyl)amino)methyl)-4-(trifluoromethyl)isoindolin-1-one], in assay [1], half-maximal inhibition (IC50) was put at 120 nM and the “fold-selectivity (Cbl-b over C-cbl)” value came to 7.3x. In addition, the half-maximal inhibitory concentration (IC50) in assay [2] worked out at 900 nM.
The like results for `CC(=O)N1CC2(C1)CC(c1cccc(N3Cc4c(cc(CNC5(C)CCC5)cc4C(F)(F)F)C3=O)c1)(c1nncn1C)C2` [Compound 97, 2-(3-(2-acetyl-6-(4-methyl-4H-1,2,4-triazol-3-yl)-2-azaspiro[3.3]heptan-6-yl)phenyl)-6-(((1-methylcyclobutyl)amino)methyl)-4-(trifluoromethyl)isoindolin-1-one] were, in that order, 5200 nM, 3.1x and 16000 nM.
In the case of `Cn1cnnc1C1(c2cccc(N3Cc4c(cc(CNC5(C)CCC5)cc4C(F)(F)F)C3=O)c2)CC2(CN(S(C)(=O)=O)C2)C1` [Compound 98, 2-(3-(6-(4-methyl-4H-1,2,4-triazol-3-yl)-2-(methylsulfonyl)-2-azaspiro[3.3]heptan-6-yl)phenyl)-6-(((1-methylcyclobutyl)amino)methyl)-4-(trifluoromethyl)isoindolin-1-one], in assay [1], it took 1300 nM to reach half-maximal inhibition (IC50) and the “fold-selectivity (Cbl-b over C-cbl)” value was 5.8x. In assay [2], this compound showed a half-inhibitory concentration (IC50) of 7500 nM.
